Reference: patent US20070292489A1, “METHOD FOR TREATMENT OF WOUND TREATMENT USING AGANOCIDES” (priority 2006, published 2007)

Test system: human secondary intention wound
Experiment: Vacuum-assisted wound treatment combined with intermittent aganocide instillation
Type: in vivo
Conditions: pH about 4, 0.9% NaCl, 2-hour pumping at 125 mm Hg
Method: A human secondary intention wound approximately 3-4 cm in diameter is fitted with a polyurethane sponge, pore size 400-600 microns cut to the size of the wound and twice the thickness of the wound and covered with an adhesive film, per instructions on the vacuum system. The outlet is connected to an IV bag (500 ml) with a 0.1% sodium 2-dichloroamino-2-methylpropanesulfonate solution adjusted with HCl to a pH of about 4, 0.9% NaCl and elevated to between 0.1 and 1 meter above the wound. A 1-cm hole is punctured in the adhesive film, and a second adhesive film is used to cover the hole, with the second outlet connected to the vacuum pump.
Each cycle consists of three phases: a 2-hour pumping phase when the vacuum (125 mm Hg negative pressure) is connected and the IV bag is disconnected; a 1 second instilling phase when the vacuum is disconnected and the IV bag is connected and the aganoocide is applied to the wound; and a 1 minute holding phase when both vacuum and the IV bag are disconnected.
Each treatment has about 24 cycles and starts with a pumping phase and proceeds for 48 hours. When the treatment is completed, the dressings are changed and the treatment is repeated until full granulation has been promoted and the granulation tissue is within the level of the skin, approximately 30 to 100 days, depending on the depth of the original wound. […]

CC(C)(CS(=O)(=O)[O-])N(Cl)Cl.[Na+] [Sodium 2-dichloroamino-2-methylpropanesulfonate]
wound healing results of the combination treatment regimen compared with vacuum-assisted wound healing without aganocide or aganocide alone (Example 1: 0.1% solution, 1 second instilling, 1 minute holding, about 24 cycles per 48 hours): superior wound healing results | wound healing results of the combination treatment regimen compared with vacuum-assisted wound healing without aganocide or aganocide alone (Example 2: 0.1% solution, 5 second instilling, 30 minute holding, about 19 cycles per 48 hours): superior wound healing results
